The values below come from ChEMBL document CHEMBL2176890, “2-(3-fluoro-4-methylsulfonylaminophenyl)propanamides as potent transient receptor potential vanilloid 1 (TRPV1) antagonists: structure-activity relationships of 2-amino derivatives in the N-(6-trifluoromethylpyridin-3-ylmethyl) C-region” (J Med Chem, 2012).

The target in data set [1] is T1, Transient receptor potential cation channel subfamily V member 1 (Homo sapiens, UniProt Q8NER1). Briefly: Antagonist activity at human TRPV1 expressed in CHOK1 cells assessed as inhibition of capsaicin-induced activity by FLIPR assay. The format is functional, cell-based, CHO-K1.
For data set [2], the target named is T1, Transient receptor potential cation channel subfamily V member 1. Description: Antagonist activity at human TRPV1 expressed in CHOK1 cells assessed as inhibition of pH-induced activity by FLIPR assay. The format is functional, cell-based, CHO-K1.
In data set [3] the test system is Rattus norvegicus. Description: Analgesic activity in CCI-induced Sprague-Dawley rat neuropathic pain model assessed as reduction in paw withdrawal measured 30 mins after po administration. It counts as functional, organism-based.
The test system of data set [4] is Rattus norvegicus. Briefly: Toxicity in po dosed CCI-induced Sprague-Dawley rat neuropathic pain model assessed as sedation. The format is organism-based. The settings on record: in vivo.
Data set [5] has as its target T1, Transient receptor potential cation channel subfamily V member 1. Description: Antagonist activity at human TRPV1 expressed in CHOK1 cells assessed as inhibition of N-acetyldopamine-induced activity after 5 mins by FLIPR assay. The format is functional, cell-based, CHO-K1.
In data set [6] the test system is Rattus norvegicus. Briefly: Toxicity in po dosed CCI-induced Sprague-Dawley rat neuropathic pain model assessed as decreased locomotion. The settings on record: in vivo. It counts as organism-based.
The target in data set [7] is T1, Transient receptor potential cation channel subfamily V member 1. Description: Antagonist activity at human TRPV1 expressed in CHOK1 cells assessed as inhibition of heat-induced activity after 5 mins by FLIPR assay. It counts as functional, cell-based, CHO-K1.
In data set [8] the test system is Rattus norvegicus. Description: Analgesic activity in CCI-induced Sprague-Dawley rat neuropathic pain model assessed as reduction in paw withdrawal at 3.16 mg/kg, po after 45 mins. The format is functional.
Data set [9] has as its system Rattus norvegicus. Briefly: Analgesic activity in CCI-induced Sprague-Dawley rat neuropathic pain model assessed as reduction in paw withdrawal measured 45 mins after po administration. It counts as functional.
Data set [10] concerns Mus musculus. Description: Inhibition of capsaicin-induced hypothermia in NMRI mouse at 0.3 mg/kg, po administered 15 mins prior challenge. The arrangement: dose 0.3 mg/kg. The format is functional, organism-based.
Data set [11] deals with Mus musculus. Description: Acute toxicity in TRPV1 knockout mouse assessed as hyperthermia at 1 mg/kg, po at 45 to 60 mins. The settings on record: in vivo.
Data set [12] deals with Mus musculus. Description: Acute toxicity in C57BL/6J mouse assessed as hyperthermia at 1 mg/kg, po at 45 to 60 mins. The following applies: in vivo.

Active and inactive are the calls of the source. No cut-off for these calls is given here.

T1 sequence (Q8NER1 whole entry): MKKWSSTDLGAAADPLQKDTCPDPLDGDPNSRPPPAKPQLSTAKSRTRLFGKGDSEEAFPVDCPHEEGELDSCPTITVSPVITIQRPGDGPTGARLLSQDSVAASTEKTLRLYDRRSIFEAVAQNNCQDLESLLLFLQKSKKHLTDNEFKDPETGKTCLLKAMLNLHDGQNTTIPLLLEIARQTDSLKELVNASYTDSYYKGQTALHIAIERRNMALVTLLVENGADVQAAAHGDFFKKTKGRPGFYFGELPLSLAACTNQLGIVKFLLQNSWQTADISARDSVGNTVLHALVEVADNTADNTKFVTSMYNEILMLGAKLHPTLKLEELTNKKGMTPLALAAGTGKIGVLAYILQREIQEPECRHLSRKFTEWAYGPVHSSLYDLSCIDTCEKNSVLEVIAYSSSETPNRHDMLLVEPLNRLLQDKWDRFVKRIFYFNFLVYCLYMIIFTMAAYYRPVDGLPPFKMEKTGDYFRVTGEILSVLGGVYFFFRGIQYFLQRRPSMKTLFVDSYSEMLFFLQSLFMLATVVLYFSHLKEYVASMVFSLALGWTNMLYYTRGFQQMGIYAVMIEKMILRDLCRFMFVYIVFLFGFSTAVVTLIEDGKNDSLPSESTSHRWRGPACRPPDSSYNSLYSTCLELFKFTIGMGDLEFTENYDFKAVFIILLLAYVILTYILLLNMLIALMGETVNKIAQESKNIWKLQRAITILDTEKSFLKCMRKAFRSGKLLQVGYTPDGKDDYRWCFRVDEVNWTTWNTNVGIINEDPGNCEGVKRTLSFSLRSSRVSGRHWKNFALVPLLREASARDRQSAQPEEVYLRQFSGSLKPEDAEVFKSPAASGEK

`C[C@H](C(=O)NCc1ccc(C(F)(F)F)nc1N1CCC[C@H]1C(=O)OC(C)(C)C)c1ccc(NS(C)(=O)=O)c(F)c1`: the Ki in data set [1] (read-out: Ki) worked out at 2.6 nM. For the same compound, the IC50 in data set [2] (read-out: IC50) came out at 209 nM.

With `O=C(/C=C/c1ccc(C(F)(F)F)nc1N1CCCCC1)Nc1ccc2cccnc2c1`, in data set [1] (read-out: Ki), the Ki was found to be 4.4 nM. Further, the IC50 result in [2] (cho-k1) is “Not Active”.

On to `CC(C(=O)NCc1ccc(C(F)(F)F)nc1N1CCC(CN(C)C)CC1)c1ccc(NS(C)(=O)=O)c(F)c1` (racemic), for which the inhibition constant (Ki) in [1] (read-out: Ki) stood at 2.1 nM. In data set [2] (read-out: IC50), the IC50 is 426 nM.

In the case of `CC(C(=O)NCc1ccc(C(F)(F)F)nc1NCc1cccnc1)c1ccc(NS(C)(=O)=O)c(F)c1` (racemic), the Ki entry in data set [1] (cho-k1) is reported as “Not Active”. The IC50 entry in data set [2] (cho-k1) is recorded as “Not Active”.

Consider `Cc1ccc(CC2CCN(c3nc(C(F)(F)F)ccc3CNC(=O)C(C)c3ccc(NS(C)(=O)=O)c(F)c3)CC2)cc1` (racemic), for which the inhibitory constant (Ki) in data set [1] (read-out: Ki) is 0.2 nM. The IC50 in data set [2] (read-out: IC50) is 17 nM.

As for `CC(C(=O)NCc1ccc(C(F)(F)F)nc1N1CCC(Cc2cc(F)cc(F)c2)CC1)c1ccc(NS(C)(=O)=O)c(F)c1` (racemic), the Ki in data set [1] (read-out: Ki) worked out at 0.4 nM. For the same compound, in data set [2] (read-out: IC50), the IC50 turned out to be 24 nM.

On to `CC1CCCN1c1nc(C(F)(F)F)ccc1CNC(=O)[C@@H](C)c1ccc(NS(C)(=O)=O)c(F)c1` (stereo not given in full), for which, in data set [1] (read-out: Ki), the Ki amounted to 0.3 nM.

For the compound `C[C@H](C(=O)NCc1ccc(C(F)(F)F)nc1N1CC[C@H](NC(=O)OC(C)(C)C)C1)c1ccc(NS(C)(=O)=O)c(F)c1`, the Ki in data set [1] (read-out: Ki) is 7.1 nM. Besides, the IC50 in [2] (read-out: IC50) is 737 nM.

Regarding `CC(C(=O)NCc1ccc(C(F)(F)F)nc1N1CCC(O)CC1)c1ccc(NS(C)(=O)=O)c(F)c1` (racemic), in data set [1] (cho-k1), the Ki entry is on record as “Not Active”. Moreover, the IC50 result in data set [2] (cho-k1) is “Not Active”.

With `CC(C(=O)NCc1ccc(C(F)(F)F)nc1N1CCC(Cc2ccc(F)c(F)c2)CC1)c1ccc(NS(C)(=O)=O)c(F)c1` (racemic), the Ki in data set [1] (read-out: Ki) was 0.2 nM. The IC50 in [2] (read-out: IC50) turned out to be 30 nM.

On to `CC(C(=O)NCc1ccc(C(F)(F)F)nc1N1CCC(C(=O)c2ccc(F)cc2)CC1)c1ccc(NS(C)(=O)=O)c(F)c1` (racemic), for which, in data set [1] (read-out: Ki), the Ki worked out at 3.9 nM. In addition, the IC50 in [2] (read-out: IC50) worked out at 990 nM.

For the compound `C[C@H](C(=O)NCc1ccc(C(F)(F)F)nc1N1CC[C@@H](NC(=O)OC(C)(C)C)C1)c1ccc(NS(C)(=O)=O)c(F)c1`, the inhibition constant Ki in data set [1] (read-out: Ki) amounted to 11 nM. Further, the IC50 in data set [2] (read-out: IC50) amounted to 757 nM.

For the compound `C[C@H](C(=O)NCc1ccc(C(F)(F)F)nc1N1CCC[C@H]1CO)c1ccc(NS(C)(=O)=O)c(F)c1`, the IC50 result in data set [2] (cho-k1) is given as “Not Active”.

As to `C[C@H](C(=O)NCc1ccc(C(C)(C)C)cc1)c1ccc(NS(C)(=O)=O)c(F)c1`, in the data set on Rattus norvegicus [3], the result was Active. The results for the inhibition constant (Ki) in data set [1] (read-out: Ki) and in data set [5] were 20 nM and 6.6 nM, respectively. For the same compound, the Activity entry in the data set on Rattus norvegicus [4] and in the data set on Rattus norvegicus [6] was “Non-toxic” each time. In addition, the IC50 in data set [2] (read-out: IC50) amounted to 1210 nM; in [7], 174 nM.

Turning to `CC1CCN(c2nc(C(F)(F)F)ccc2CNC(=O)[C@H](C)c2ccc(NS(C)(=O)=O)c(F)c2)CC1`, the Ki in data set [1] (read-out: Ki) was found to be 9.8 nM. The IC50 in data set [2] (read-out: IC50) is 254 nM.

As to `CC(C(=O)NCc1ccc(C(F)(F)F)nc1N1CCCCC1)c1ccc(NS(C)(=O)=O)c(F)c1` (racemic), in data set [1] (read-out: Ki), the Ki was 0.43 nM.

`C[C@H](C(=O)NCc1ccc(C(F)(F)F)nc1N1CCC[C@H]1C(=O)N(C)C)c1ccc(NS(C)(=O)=O)c(F)c1`: the IC50 entry in [2] (cho-k1) was “Not Active”.

As to `C[C@H](C(=O)NCc1ccc(C(F)(F)F)nc1N1CC[C@@H](N(C)C)C1)c1ccc(NS(C)(=O)=O)c(F)c1`, in data set [1] (read-out: Ki), the Ki was determined as 101 nM.

For the compound `C[C@H](C(=O)NCc1ccc(C(F)(F)F)nc1N1CC[C@@H](OCc2ccccc2)C1)c1ccc(NS(C)(=O)=O)c(F)c1`, the inhibition constant (Ki) in [1] (read-out: Ki) stood at 1.4 nM. The IC50 in [2] (read-out: IC50) was found to be 50 nM.

For the compound `CC1CCC(Nc2nc(C(F)(F)F)ccc2CNC(=O)C(C)c2ccc(NS(C)(=O)=O)c(F)c2)CC1` (racemic), in data set [1] (read-out: Ki), the Ki is 27.2 nM. In [2] (read-out: IC50), the IC50 turned out to be 1130 nM.

In the case of `CC(C(=O)NCc1ccc(C(F)(F)F)nc1N1CCCCCC1)c1ccc(NS(C)(=O)=O)c(F)c1` (racemic), in data set [1] (read-out: Ki), the Ki came to 0.8 nM. Further, the half-inhibitory concentration (IC50) in data set [2] (read-out: IC50) came out at 25.1 nM.

Turning to `CC(C(=O)NCc1ccc(C(F)(F)F)nc1N1CCN(c2ccc(C(F)(F)F)cc2)CC1)c1ccc(NS(C)(=O)=O)c(F)c1` (racemic), the Ki in data set [1] (read-out: Ki) is 2.3 nM. The IC50 in data set [2] (read-out: IC50) is 117 nM.

As to `CC1CCN(c2nc(C(F)(F)F)ccc2CNC(=O)C(C)c2ccc(NS(C)(=O)=O)c(F)c2)CC1` (racemic), the IC50 in [2] (read-out: IC50) came out at 8.4 nM.

On to `CC1CCN(c2nc(C(F)(F)F)ccc2CNC(=O)[C@@H](C)c2ccc(NS(C)(=O)=O)c(F)c2)CC1`, for which the inhibition constant (Ki) in [1] (read-out: Ki) came out at 0.2 nM; in data set [5], 0.01 nM. Besides, the Activity entry with Rattus norvegicus [4] is “Non-toxic”; in the data set with Rattus norvegicus [6], “Non-toxic”; in the data set with Rattus norvegicus [9], “Dose-dependent effect”; with Mus musculus [11], “Non-toxic”; with Mus musculus [12], “Toxic”. For the same compound, the Emax at 3.16 mg/kg in the data set with Rattus norvegicus [8] was determined as 60%. Besides, the concentration for half-maximal inhibition (IC50) was determined as 6.3 nM in data set [2] (read-out: IC50) and 0.8 nM in data set [7]. Also, in the data set with Rattus norvegicus [9], the ED50 was found to be 0.9 mg/kg. For the same compound, the result in the data set on Mus musculus [10] was Active.

Take `C[C@H](C(=O)NCc1ccc(C(F)(F)F)nc1N1CCCCC1)c1ccc(NS(C)(=O)=O)c(F)c1`: the IC50 in [2] (read-out: IC50) came to 46.7 nM.

Take `O=C(/C=C/c1ccc(C(F)(F)F)nc1N1CCOCC1)Nc1ccc2cccnc2c1`: the Ki in data set [1] (read-out: Ki) is 1.2 nM. The 50% inhibitory concentration (IC50) in [2] (read-out: IC50) was 116 nM.

In the case of `CC(C(=O)NCc1ccc(C(F)(F)F)nc1N1CCN(c2ncccc2Cl)CC1)c1ccc(NS(C)(=O)=O)c(F)c1` (racemic), the IC50 in data set [2] (read-out: IC50) was found to be 117 nM.

With `CC(C)(C)c1ccc(CNC(=S)NCc2ccc(NS(C)(=O)=O)c(F)c2)cc1`, in [1] (read-out: Ki), the Ki was 26 nM. Moreover, the 50% inhibitory concentration (IC50) entry in [2] (cho-k1) is listed as “Not Active”.

As to `C[C@H](C(=O)NCc1ccc(C(F)(F)F)nc1N1CC[C@H](N(C)C)C1)c1ccc(NS(C)(=O)=O)c(F)c1`, in data set [1] (read-out: Ki), the Ki amounted to 103 nM.

Regarding `CC(C(=O)NCc1ccc(C(F)(F)F)nc1)c1ccc(NS(C)(=O)=O)c(F)c1` (racemic), the concentration for half-maximal inhibition (IC50) result in [2] (cho-k1) was “Not Active”.
